Where a SMILES comes first, the peptide text is derived from it. Side-chain parts run from the residue outwards. The star is where a group is joined. NOTA = O=C(O)CN1CCN(CC(=O)O)CCN(CC(=O)*)CC1; PEG8 = NCCOCCOCCOCCOCCOCCOCCOCCOCCC(=O)O
Assays:
[1] = biological target: T1, tissue factor (TF) (Mus musculus, UniProt P20352); experiment: Al18F-NOTA-tTF PET/CT imaging in Hepa1-6 tumor-bearing mice; assay type: in vivo; settings: for tumor uptake SUVmax, PEI group: n = 8
T1 construct: Hepa1-6 tumor-bearing mice received an intravenous injection of 100 μL of Al^18F-NOTA-tTF (2.96 MBq); from tissue; host or cells: subcutaneous Hepa1-6 tumours in male C57BL/6 mice
T1 sequence (P20352 29-294): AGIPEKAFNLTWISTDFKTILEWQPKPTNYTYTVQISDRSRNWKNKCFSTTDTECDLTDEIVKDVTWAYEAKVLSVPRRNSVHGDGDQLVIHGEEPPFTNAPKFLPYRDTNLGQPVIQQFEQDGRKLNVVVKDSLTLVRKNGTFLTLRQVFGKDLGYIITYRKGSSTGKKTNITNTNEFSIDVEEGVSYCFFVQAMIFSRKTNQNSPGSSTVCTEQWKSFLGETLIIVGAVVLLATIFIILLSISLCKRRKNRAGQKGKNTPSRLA
Description: […] Al^18F-NOTA-tTF PET/CT imaging was conducted on days 1 and 6 post-PEI. Hepa1-6 tumor-bearing mice received an intravenous injection of 100 μL of Al^18F-NOTA-tTF (2.96 MBq). Tumor volume and mouse body weight were monitored every 2 to 3 days. Biodistribution studies were performed on days 1 and 6 post-PEI, with mice divided into PEI and NC groups. Al^18F-NOTA-tTF (1.2 MBq) was administered via tail vein injection, and biodistribution results were expressed as the percentage of injected dose per gram (%ID/g).
Tumor-bearing mice were randomly divided into the HD-PEI treatment (HD-PEI, n = 8), LD-PEI treatment (LD-PEI, n = 8), and negative control (NC, n = 8) groups. Al^18F-NOTA-tTF PET/CT imaging was conducted on days 1, 5, and 12 post-PEI.^ 18F-FDG PET/CT imaging was conducted on days 2, 6, and 13 post-PEI. Hepa1-6 tumor-bearing mice received intravenous injections of 100 μL of Al^18F-NOTA-tTF (2.96 MBq) and^ 18F-FDG (2.96 MBq). Tumor volume and mouse body weight were monitored every 2 days. […]
increased to 95 °C, and maintained for 15 min. The crude product was purified using a C18 Sep-Pak cartridge and sterilized for subsequent applications. Radiolabeling efficiency was assessed using radio-thin-layer chromatography with citrate solvent (0.1 M, pH 4.0) as the mobile phase. […]
(§1) Al18F-NOTA-tTF PET/CT imaging in mice bearing Hepa1-6 xenografts
(§2) Al18F-NOTA-tTF PET/CT imaging of Hepa1-6 tumor-bearing mice were intravenously injected with 100 μL of Al18F-NOTA-tTF (2.96 MBq). In the blocking experiments, unlabeled excess precursors (0.2 mg) were co-injected with Al18F-NOTA-tTF into Hepa1-6 mice (n = 3).
One hour after Al18F-NOTA-tTF injection, the mice were anesthetized and placed in the prone […]
position on the scanning bed. The PET/CT imaging was acquired with a PET/CT scanner (uBio-EXPLORER, United Imaging, China). PET images were collected for 10 min and reconstructed to get more high-resolution images using an ordered subsets expectation maximization (OSEM) algorithm (4 OSEM iterations, resolution: 1.4 mmHD) with scatter, attenuation, and decay corrections applied. Regions of interest (ROIs) were drawn on the CT images and further mapped on PET. The SUVmax of the tumor and muscle were calculated and referred to as the tumor-to- […]
PEI treatment and efficacy monitoring
In this study, we established a model of incomplete ablation of hepatocellular carcinoma using percutaneous ethanol injection (PEI). Once the tumor volume reached approximately 100 mm3, all mice were randomly assigned to treatment, sham treatment, and negative control groups.
During the PEI procedure, an insulin needle was inserted along the long diameter of the tumor, with needle depth set at1/2 to 2/3 of the tumor diameter. Ethanol was injected at a rate of 25 μL every half minute, and the needle was slowly withdrawn after 5 minutes of injection. Ethanol leakage from the tumor was assessed using CT scans immediately following PEI treatment, defined as day 0. Subsequently, 18F-FDG PET/CT imaging was performed on day 1 post-PEI to evaluate therapeutic efficacy. Tumor volume and mouse body weight were monitored every 2 to 3 days. Tumor volume was calculated using the formula volume = (length × width^2)/2.
Radioligand therapy study
Mice were randomly assigned to five groups: PEI (group 1, n = 10), PEI + 0.45 mCi 177Lu-DOTA-tTF (group 2, n = 10), PEI + 0.75 mCi 177Lu-DOTA-tTF (group 3, n = 8), 0.45 mCi 177Lu-DOTA-tTF (group 4, n = 10), and saline (group 5, n = 10). During radiotherapy, one mouse died in […]

[2] = parameters: species or system Kunming mice; settings: mouse, in vivo
Description: increased to 95 °C, and maintained for 15 min. The crude product was purified using a C18 Sep-Pak cartridge and sterilized for subsequent applications. Radiolabeling efficiency was assessed using radio-thin-layer chromatography with citrate solvent (0.1 M, pH 4.0) as the mobile phase.
Small animal biodistribution and pharmacokinetics study of Al18F-NOTA-tTF A small animal biodistribution experiment was conducted with female Kunming mice (5 weeks). The mice were divided into six groups with 3-4 mice in each group. Al18F-NOTA-tTF (1.2 MBq) was injected into KM mice via the tail vein and a 1% injected dose of Al18F-NOTA-tTF was prepared for reference. At 5 min,15 min, 30 min, 60 min, 90 min and 120 min post-injection, the KM mice were euthanized and organs of interest were collected, wet-weighed. The uptake in various organs and tissues was determined and expressed in terms of the percentage injected dose per gram (%ID/g, mean ± SD) after quantifying the radioactivity of the samples using an […]
For the pharmacokinetic study, each Kunming mouse was intravenously injected with a 3.7 MBq of Al18F-NOTA-tTF. Small amounts of blood were obtained through the orbital vein of the […]
weighed and measured for radioactivity by the γ-counter. The results are expressed as the percentage injected dose per gram (%ID/g).
as §1, §2
One hour after Al18F-NOTA-tTF injection, the mice were anesthetized and placed in the prone

[3] = in vivo; parameters: species or system mice; settings: mouse, iv, 1.2 MBq, total radioactivity, tumor uptake (biodistribution), PEI group
Description: (§3) We randomly divided tumor-bearing mice into the HD-PEI treatment (HD-PEI, n = 8), sham treatment (Sham, n = 8), and negative control groups (NC, n = 6). Al^18F-NOTA-tTF PET/CT imaging was conducted on days 1 and 6 post-PEI. Hepa1-6 tumor-bearing mice received an intravenous injection of 100 μL of Al^18F-NOTA-tTF (2.96 MBq). Tumor volume and mouse body weight were monitored every 2 to 3 days. Biodistribution studies were performed on days 1 and 6 post-PEI, with mice divided into PEI and NC groups. Al^18F-NOTA-tTF (1.2 MBq) was administered via tail vein injection, and biodistribution results were expressed as the percentage of injected dose per gram (%ID/g).

[4] = biological target: T1, tissue factor (TF); experiment: in vivo; parameters: species or system mice; settings: iv, 1.2 MBq, 1 h
Description: as §3

[5] = assay type: physicochemical
Excerpt: (§4) instant thin layer chromatography. The stability of Al18F-NOTA-tTF in PBS (C) and FBS (D) via
(§5) instant thin layer chromatography. The stability of 68Ga-DOTA-tTF in PBS (E) and FBS (F) via
(§6) instant thin layer chromatography.
(§7) FBS: fetal bovine serum; PBS: phosphate-buffered saline.

[6] = assay type: in vitro ADME, bovine
Excerpt: as §4, §5, §6, §7

[7] = HD/LD-PEI models, day 1 post-PEI
[8] = HD/LD-PEI models, day 5 post-PEI
[9] = HD/LD-PEI models, day 12 post-PEI
[10] = day 1 post-PEI, 60 min post-injection, n = 6

tumor uptake SUVmax, NC group ([1]; HD/LD-PEI models, day 1): 0.12 ± 0.04
tumor uptake SUVmax, HD-PEI group [1, 7]: 0.42 ± 0.17
tumor uptake SUVmax, LD-PEI group [1, 7]: 0.54 ± 0.23
tumor uptake SUVmax, NC group ([1]; HD/LD-PEI models, day 5): 0.16 ± 0.06
tumor uptake SUVmax, HD-PEI group [1, 8]: 0.33 ± 0.09
tumor uptake SUVmax, LD-PEI group [1, 8]: 0.30 ± 0.09
tumor SUVmax, HD-PEI group [1, 9]: 0.25 ± 0.10
tumor SUVmax, LD-PEI group [1, 9]: 0.31 ± 0.08
tumor uptake SUVmax, blocked ([1]; Hepa1-6 tumor-bearing mice, 0.2 mg unlabeled precursor, 60 min post-injection, n = 3): 0.07 ± 0.010
tumor uptake SUVmax, non-blocked ([1]; Hepa1-6 tumor-bearing mice, 60 min post-injection, n = 3): 0.13 ± 0.005
tumor uptake SUVmax, NC group [1, 10]: 0.12 ± 0.03
tumor uptake SUVmax, Sham group [1, 10]: 0.15 ± 0.04
tumor uptake SUVmax, PEI group ([1]; day 1 post-PEI, 60 min post-injection): 0.62 ± 0.14
tumor uptake SUVmax, NC group ([1]; day 6 post-PEI, n = 6): 0.11 ± 0.03
tumor uptake SUVmax, Sham group ([1]; day 6 post-PEI, n = 6): 0.11 ± 0.01
tumor uptake SUVmax, PEI group ([1]; day 6 post-PEI): 0.46 ± 0.23
SMILES: CC(C)C[C@H](NC(=O)[C@@H](NC(=O)[C@@H](N)CCCNC(=N)N)[C@@H](C)O)C(=O)N[C@@H](C)C(=O)N[C@@H](Cc1ccccc1)C(=O)N[C@H](C(=O)N[C@@H](CCCNC(=N)N)C(=O)N[C@@H](Cc1ccccc1)C(=O)N[C@@H](CCCCNC(=O)CCOCCOCCOCCOCCOCCOCCOCCOCCNC(=O)CN1CCN(CC(=O)O)CCN(CC(=O)O)CC1)C(=O)O)C(C)C [Al^18F-NOTA-tTF] (H-RTLAFVRFK([PEG8-NOTA])-OH)
renal clearance [2]: rapid renal clearance
distribution phase half-life (Half-life Fast) ([2]; iv): 1.192 min
elimination phase half-life (Half-life Slow) ([2]; iv): 12.29 min
tissue uptake at 1 h [3]: 0.77 ± 0.25 %ID/g
tumor uptake (biodistribution), PEI group [4]: 0.50 ± 0.28 %ID/g
Vitro stability in PBS [5]: > 95% (3 h)
Vitro stability in FBS [6]: > 95% (3 h)
in vitro stability in saline or fetal bovine serum [6]: remained stable

Source: PMC11626952, “Preclinical evaluation of radiolabeled tissue factor-targeted peptide for theranostics of hepatocellular carcinoma post percutaneous ethanol injection” (Theranostics, 2024)
